Patent publication US10934309B2, “Tricyclic quinone derivative” (Boston Biomedical, Inc., priority 2014, dated 2021)

Experiments:
Format in all cases: cell-based, human
HT-29 cells [1] = test: Inhibition assay of cancer cell sphere-forming ability (Test Example 2), HT-29; details: Homo sapiens, HT-29, 96 h, HT-29 cells, Ultra-Low Attachment plate, serum-free DMEM/F12 with B27, EGF, bFGF, insulin, 4 days, Cell Titer-Glo; read-out: IC50 (μM) HT; concentration for 50% inhibition of cell proliferation (Sphere IC50 value)
Method: (§1) HCT-116 cells (derived from human colon adenocarcinoma), HT-29 cells (derived from human colon cancer), FaDu cells (derived from human hypopharynx cancer) were obtained from American Type Culture Collection (ATCC). […] HCT-116 cells, HT-29 cells, and FaDu cells were seeded onto 384 Well Black Clear Bottom Ultra-Low Attachment Microplate (Corning Cat. […] A test substance was added so that the final concentration of DMSO is 0.1%, and then cultured for 4 days. […] A test shown in Test example 2 was carried out for compounds obtained in the Examples.

FaDu cells [2] = test: Inhibition assay of cancer cell sphere-forming ability (Test Example 2), FaDu; details: Homo sapiens, FaDu, 96 h, FaDu cells, Ultra-Low Attachment plate, serum-free DMEM/F12 with B27, EGF, bFGF, insulin, 4 days, Cell Titer-Glo; read-out: IC50 (μM) FaDu; concentration for 50% inhibition of cell proliferation (Sphere IC50 value)
Method: as §1

cancer cells [3] = test: Inhibition test of cancer cell sphere-forming ability, overall statement on Table 2; details: summary of Table 2
Method: HCT-116 cells (derived from human colon adenocarcinoma), HT-29 cells (derived from human colon cancer), FaDu cells (derived from human hypopharynx cancer) were obtained from American Type Culture Collection (ATCC). HCT-116 cells and HT-29 cells were cultured using McCoy's 5a medium containing 10% fetal bovine serum (FBS) and 1% penicillin/streptomycin, and FaDu cells were cultured using MEM medium containing 10% FBS, 1% non-essential amino acid, 1% sodium pyruvate, and 1% penicillin/streptomycin, respectively, at 37° C. in the presence of 5% CO2. HCT-116 cells, HT-29 cells, and FaDu cells were seeded onto 384 Well Black Clear Bottom Ultra-Low Attachment Microplate (Corning Cat. No. 3827) using DMEM/F12 medium containing 2% B27 supplement (GIBCO), 20 ng/mL epidermal growth factor (EGF) (peprotech), 10 ng/mL basic fibroblast growth factor (bFGF) (peprotech), 5 μg/mL insulin (Sigma), and 1% penicillin/streptomycin to be 350-800 cells/well. A test substance was added so that the final concentration of DMSO is 0.1%, and then cultured for 4 days. The number of living cells was then counted using Cell Titer-Glo (registered trademark) Luminescent Cell Viability Assay (Promega) to calculate the concentration for 50% inhibition of cell proliferation of respective test substances (Sphere IC50 value; μM).

cancer cells [4] = test: Proliferation inhibition test of cancer cells, overall statement on Table 1; details: summary of Table 1
Method: HCT-116 cells (derived from human colon adenocarcinoma), HT-29 cells (derived from human colon cancer), and FaDu cells (derived from human hypopharynx cancer) were obtained from American Type Culture Collection (ATCC). HCT-116 cells and HT-29 cells were cultured using McCoy's 5a medium containing 10% fetal bovine serum (FBS) and 1% penicillin/streptomycin, and FaDu cells were cultured using MEM medium containing 10% FBS, 1% non-essential amino acid, 1% sodium pyruvate, and 1% penicillin/streptomycin, respectively, at 37° C. in the presence of 5% CO2. After cells were seeded at 300-600 cells/well onto black μClear-plate 384 well (Greiner bio-one Cat. No. 781091), a test substance was added such that the final concentration of DMSO is 0.1%, and cultured for 4 days. The number of living cells was then counted using Cell Titer-Glo (Registered trademark) Luminescent Cell Viability Assay (Promega) to calculate a concentration for 50% inhibition of cell proliferation of respective test substances (Bulk IC50 value; μM).

FaDu cells [5] = test: Proliferation inhibition assay of cancer cells (Test Example 1), FaDu; details: Homo sapiens, FaDu, 96 h, FaDu cells, cultured for 4 days, Cell Titer-Glo; read-out: IC50 (μM) FaDu; concentration for 50% inhibition of cell proliferation (Bulk IC50 value)
Method: (§2) HCT-116 cells (derived from human colon adenocarcinoma), HT-29 cells (derived from human colon cancer), and FaDu cells (derived from human hypopharynx cancer) were obtained from American Type Culture Collection (ATCC). […] After cells were seeded at 300-600 cells/well onto black μClear-plate 384 well (Greiner bio-one Cat. No. 781091), a test substance was added such that the final concentration of DMSO is 0.1%, and cultured for 4 days. […] A test shown in Test example 1 was carried out for compounds obtained in the Examples.

HT-29 cells [6] = test: Proliferation inhibition assay of cancer cells (Test Example 1), HT-29; details: Homo sapiens, HT-29, 96 h, HT-29 cells, cultured for 4 days, Cell Titer-Glo; read-out: IC50 (μM) HT; concentration for 50% inhibition of cell proliferation (Bulk IC50 value)
Method: as §2

HCT-116 cells [7] = test: Inhibition assay of cancer cell sphere-forming ability (Test Example 2), HCT-116; details: Homo sapiens, HCT-116, 96 h, HCT-116 cells, Ultra-Low Attachment plate, serum-free DMEM/F12 with B27, EGF, bFGF, insulin, 4 days, Cell Titer-Glo; read-out: IC50 (μM) HCT; concentration for 50% inhibition of cell proliferation (Sphere IC50 value)
Method: as §1

HCT-116 cells [8] = test: Proliferation inhibition assay of cancer cells (Test Example 1), HCT-116; details: Homo sapiens, HCT-116, 96 h, HCT-116 cells, cultured for 4 days, Cell Titer-Glo; read-out: IC50 (μM) HCT; concentration for 50% inhibition of cell proliferation (Bulk IC50 value)
Method: as §2

Question: For O=C1c2ccncc2C(=O)c2c1oc(C(F)F)c2C(=O)N1CCOCC1 [Example 62, 2-(difluoromethyl)-3-(morpholine-4-carbonyl)furo[2,3-g]isoquinoline-4,9-dione], which IC50 (HT-29 cells [1]) is on record?
Answer: 0.04 µM

Question: And the IC50 (FaDu cells [2])?
Answer: < 0.01 µM

Question: And the “effect to inhibit cancer cell sphere-forming ability (in words)” value (cancer cells [3])?
Answer: particularly strong effect

Question: What about the “effect on the inhibition of the proliferation of cancer cells (in words)” value (“effect on the inhibition” for short) (cancer cells [4]) of the same molecule?
Answer: particularly strong effect

Question: And the IC50 (FaDu cells [5])?
Answer: 0.04 µM

Question: What about the IC50 (HT-29 cells [6]) of the same molecule?
Answer: 0.57 µM

Question: And the IC50 (HCT-116 cells [7])?
Answer: 0.05 µM

Question: What about the IC50 (HCT-116 cells [8]) of the same molecule?
Answer: 0.06 µM

Question: Which IC50 (HT-29 cells [1]) does the source give for CC(F)c1cc2c(s1)C(=O)c1ccncc1C2=O (stereo not shown) [Example 30, 2-(1-fluoroethyl)thieno[2,3-g]isoquinoline-4,9-dione] here?
Answer: < 0.01 µM

Question: What about the IC50 (FaDu cells [2]) of the same molecule?
Answer: < 0.01 µM

Question: What about the “effect to inhibit cancer cell sphere-forming ability (in words)” value (cancer cells [3]) of the same molecule?
Answer: particularly strong effect

Question: What about the “effect on the inhibition” value (cancer cells [4]) of the same molecule?
Answer: particularly strong effect

Question: And the IC50 (FaDu cells [5])?
Answer: < 0.01 µM

Question: What about the IC50 (HT-29 cells [6]) of the same molecule?
Answer: 0.05 µM

Question: And the IC50 (HCT-116 cells [7])?
Answer: < 0.01 µM

Question: And the IC50 (HCT-116 cells [8])?
Answer: < 0.01 µM

Question: What does the source list for CC(=O)N1CCN(Cc2cc3c(s2)C(=O)c2ccncc2C3=O)CC1 [Example 27, 2-[(4-acetylpiperazin-1-yl)methyl]thieno[2,3-g]isoquinoline-4,9-dione]?
Answer: IC50 (HT-29 cells [1]): 0.06 µM; IC50 (FaDu cells [2]): < 0.01 µM; effect to inhibit cancer cell sphere-forming ability (in words) (cancer cells [3]): particularly strong effect; IC50 (FaDu cells [5]): 0.03 µM; IC50 (HT-29 cells [6]): 0.4 µM; IC50 (HCT-116 cells [7]): 0.47 µM; IC50 (HCT-116 cells [8]): 0.5 µM

Question: For CC(O)c1cc2c(o1)C(=O)c1cnccc1C2=O (stereo not shown) [Example 49, 2-(1-hydroxyethyl)furo[3,2-g]isoquinoline-4,9-dione], which IC50 (HT-29 cells [1]) is on record?
Answer: 0.06 µM

Question: What about the IC50 (FaDu cells [2]) of the same molecule?
Answer: < 0.01 µM

Question: And the “effect to inhibit cancer cell sphere-forming ability (in words)” value (cancer cells [3])?
Answer: particularly strong effect

Question: What about the “effect on the inhibition” value (cancer cells [4]) of the same molecule?
Answer: particularly strong effect

Question: And the IC50 (FaDu cells [5])?
Answer: < 0.01 µM

Question: And the IC50 (HT-29 cells [6])?
Answer: 0.08 µM

Question: What about the IC50 (HCT-116 cells [7]) of the same molecule?
Answer: 0.04 µM

Question: What about the IC50 (HCT-116 cells [8]) of the same molecule?
Answer: 0.04 µM

Question: For O=C1c2cnccc2C(=O)c2sc(CNCC(F)F)cc21 [Example 26, 2-{[(2,2-difluoroethyl)amino]methyl}thieno[2,3-g]isoquinoline-4,9-dione], which IC50 (HT-29 cells [1]) is on record?
Answer: 0.07 µM

Question: And the IC50 (FaDu cells [2])?
Answer: < 0.01 µM

Question: What about the “effect to inhibit cancer cell sphere-forming ability (in words)” value (cancer cells [3]) of the same molecule?
Answer: particularly strong effect

Question: What about the IC50 (FaDu cells [5]) of the same molecule?
Answer: 0.02 µM

Question: What about the IC50 (HT-29 cells [6]) of the same molecule?
Answer: 0.45 µM

Question: What about the IC50 (HCT-116 cells [7]) of the same molecule?
Answer: 0.17 µM

Question: What about the IC50 (HCT-116 cells [8]) of the same molecule?
Answer: 0.09 µM

Question: Which IC50 (HT-29 cells [1]) does the source give for CCN(CCOC)Cc1cc2c(s1)C(=O)c1ccncc1C2=O [Example 24, 2-{[ethyl(2-methoxyethyl)amino]methyl}thieno[2,3-g]isoquinoline-4,9-dione] here?
Answer: 0.18 µM

Question: And the IC50 (FaDu cells [2])?
Answer: < 0.01 µM

Question: What about the “effect to inhibit cancer cell sphere-forming ability (in words)” value (cancer cells [3]) of the same molecule?
Answer: particularly strong effect

Question: And the IC50 (FaDu cells [5])?
Answer: 0.03 µM

Question: And the IC50 (HT-29 cells [6])?
Answer: 0.65 µM

Question: What about the IC50 (HCT-116 cells [7]) of the same molecule?
Answer: 0.43 µM

Question: What about the IC50 (HCT-116 cells [8]) of the same molecule?
Answer: 0.34 µM

Question: For CC(C)(O)c1cc2c(s1)C(=O)c1ccncc1C2=O [Example 15, 2-(2-hydroxypropan-2-yl)thieno[2,3-g]isoquinoline-4,9-dione], which IC50 (HT-29 cells [1]) is on record?
Answer: 0.46 µM

Question: And the IC50 (FaDu cells [2])?
Answer: < 0.01 µM

Question: And the “effect to inhibit cancer cell sphere-forming ability (in words)” value (cancer cells [3])?
Answer: particularly strong effect

Question: And the IC50 (FaDu cells [5])?
Answer: 0.04 µM

Question: What about the IC50 (HT-29 cells [6]) of the same molecule?
Answer: 0.61 µM

Question: What about the IC50 (HCT-116 cells [7]) of the same molecule?
Answer: 0.4 µM

Question: And the IC50 (HCT-116 cells [8])?
Answer: 0.34 µM

Question: With CC(=O)c1cc2c(s1)C(=O)c1cccnc1C2=O [Example 1, 2-acetylthieno[2,3-g]quinoline-4,9-dione] as the molecule, how does the IC50 (HT-29 cells [1]) read?
Answer: 0.07 µM

Question: And the IC50 (FaDu cells [2])?
Answer: 0.02 µM

Question: And the “effect on the inhibition” value (cancer cells [4])?
Answer: particularly strong effect

Question: And the IC50 (FaDu cells [5])?
Answer: 0.01 µM

Question: And the IC50 (HT-29 cells [6])?
Answer: 0.57 µM

Question: What about the IC50 (HCT-116 cells [7]) of the same molecule?
Answer: 0.02 µM

Question: And the IC50 (HCT-116 cells [8])?
Answer: 0.01 µM

Question: How did the IC50 (HT-29 cells [1]) turn out when CC(O)c1cc2c(s1)C(=O)c1ccncc1C2=O (stereo not shown) [Example 13, 2-(1-hydroxyethyl)thieno[2,3-g]isoquinoline-4,9-dione] was run?
Answer: 0.06 µM

Question: What about the IC50 (FaDu cells [2]) of the same molecule?
Answer: < 0.01 µM

Question: What about the “effect to inhibit cancer cell sphere-forming ability (in words)” value (cancer cells [3]) of the same molecule?
Answer: particularly strong effect

Question: What about the IC50 (FaDu cells [5]) of the same molecule?
Answer: 0.02 µM

Question: What about the IC50 (HT-29 cells [6]) of the same molecule?
Answer: 0.37 µM

Question: And the IC50 (HCT-116 cells [7])?
Answer: 0.05 µM

Question: And the IC50 (HCT-116 cells [8])?
Answer: 0.06 µM

Question: For O=C1c2cc(C(=O)N3CCOCC3)oc2C(=O)c2sccc21 [Example 55, 2-(morpholin-4-ylcarbonyl)thieno[3,2-f][1]benzofuran-4,8-dione], which IC50 (HT-29 cells [1]) is on record?
Answer: 0.04 µM

Question: And the IC50 (FaDu cells [2])?
Answer: 0.01 µM

Question: And the “effect to inhibit cancer cell sphere-forming ability (in words)” value (cancer cells [3])?
Answer: particularly strong effect

Question: And the IC50 (FaDu cells [5])?
Answer: 0.06 µM

Question: What about the IC50 (HT-29 cells [6]) of the same molecule?
Answer: 0.58 µM

Question: What about the IC50 (HCT-116 cells [7]) of the same molecule?
Answer: 0.04 µM

Question: And the IC50 (HCT-116 cells [8])?
Answer: 0.05 µM
